Experimental data from article PMC7059204, “Gonadotropin-Releasing Hormone Receptor-Targeted Near-Infrared Fluorescence Probe for Specific Recognition and Localization of Peritoneal Metastases of Ovarian Cancer” (Frontiers in Oncology, 2020).

Legend:
A2780 cells [1] = experiment: Fluorescence microscopy cell binding of GnRHa-ICG / ICG; type: cell-based, human; settings: 60 min, 37°C, confocal microscopy
Protocol: (§1) The cells were placed in an 8-well chamber slide (Ibidi) and grown to ~60% confluence. A2780, CAOV-3, ES-2, and HeyA8 cells were incubated with 100 μmol/L GnRHa-FITC, and A2780, OSE, and H1299 cells were incubated with 20 μmol/L GnRHa-ICG or ICG (Sigma-Aldrich) for 60 min at 37°C. After incubation, the cells were washed with PBS, fixed in 4% paraformaldehyde, labeled with WGA Alexa Fluor 594 conjugate or WGA Alexa Fluor 488 conjugate (Invitrogen), and mounted with DAPI. These samples were analyzed using TCS SP5 confocal microscopy (Leica). For quantitative analysis, the mean fluorescence intensity was calculated using ImageJ software (version 1.50 g).

OSE cells = experiment: as above; type: cell-based, human; settings: 60 min, 37°C, confocal microscopy
Protocol: as §1

[2] = tested on: A2780 peritoneal metastases of ovarian cancer; type: in vivo, Balb/c nude mice
Description: The xenograft model for metastatic ovarian cancer was previously described ([18]). Female Balb/c nude mice (5–6 weeks old) were intraperitoneally injected with 1 × 10^7 A2780 cells. Tumors were allowed to grow for 2–3 weeks. The Institutional Animal Care and Use Committee of Fudan University approved all protocols presented in these studies.
For ex vivo GnRHa-ICG and ICG (0, 1, 10, and 20 μmol/L) imaging, fluorescence signals were taken using the IVIS Lumina K imaging system (PerkinElmer) and the clinically used Fluorescence Navigation system (the FloNavi, Optomedic Technique Inc., Guangdong, China). For intraperitoneal metastasis imaging, 0.72 μmol/kg of GnRHa-ICG or ICG was injected intraperitoneally in mice. Mice were sacrificed at the indicated times (n = 3 per group), and the abdominal cavities were exposed. Fluorescence images were obtained using the IVIS Lumina K imaging system (PerkinElmer) with a 780 nm excitation filter and an 845 nm emission filter. For ex vivo imaging, xenografts and organs were immediately dissected and analyzed after sacrifice.
Fluorescence signals were quantified as the average radiant efficiency ([p/s/cm^2/sr]/[μW/cm^2]) using the Living Image software. The fluorescence intensity was measured by drawing a region of interest (ROI) around the area. The tumor-to-background ratio (TBR) was calculated as the average fluorescence intensity of the tumor divided by that of the skeletal muscle or intestine.

[3] = tested on: A2780 and OSE cells (GnRHR-positive); experiment: Flow cytometry blocking experiment with unlabeled GnRHa peptide; type: cell-based, human; settings: pretreated with 100 μmol/L GnRHa peptide 10 min, then 2 μmol/L GnRHa-ICG 30 min, 37°C, triplicate
Protocol: A2780 and OSE cells were placed in 6-well plates, grown to ~70% confluence, and then incubated with GnRHa-FITC (20 μmol/L) or GnRHa-ICG/ICG (10 μmol/L) for 30 min at 37°C. For the blocking experiments, cells were pretreated with 100 μmol/L GnRHa peptide for 10 min and then incubated with 2 μmol/L GnRHa-ICG for 30 min at 37°C. Samples were measured on a CytoFLEX flow cytometer (Beckman Coulter) or a FACSAria flow cytometer (BD Biosciences). All samples were examined in triplicate. Data were analyzed using FlowJo software (version X 10.0.7).

A2780 cells [4] = experiment: Cell viability assay (Cell Counting Kit-8); type: cell-based, human; settings: 0, 1, 10, 100 μmol/L, 48 h exposure, CCK-8, 4 sub-wells
Protocol: A2780 cells were seeded in 96-well plate and grown to ~40% confluence. Cells were incubated with GnRHa-ICG at different concentrations: 0, 1, 10, and 100 μmol/L. Each group had 4 sub-wells. After exposure for 48 h, cell viabilities were assessed by Cell Counting Kit-8 assay (Dojindo). The absorbance at 450 nm (reference wavelength: 630 nm) was measured with a microplate reader.

Balb/c nude mice = experiment: In vivo toxicity test; settings: 1.5 mg/kg intraperitoneal, n = 4
Protocol: The toxicity of GnRHa-ICG was determined in Balb/c nude mice (n = 4). Two groups received intraperitoneal injections of 1.5 mg/kg GnRHa-ICG and were followed for 2 and 96 h. The control group received vehicle alone. Blood draws were done to assess alanine transaminase (ALT), aspartate transaminase (AST), blood urea nitrogen (BUN), creatinine (CREA), white blood cells (WBC), and red blood cells (RBC). Tissues of the heart, lung, liver, spleen and kidney were harvested for HE staining.

[5] = 2 h post administration, 0.72 μmol/kg intraperitoneal, IVIS Lumina K, ex 780/em 845 nm, mean ± SD, n = 3 per group
[6] = 20 μmol/L, mean fluorescence intensity by ImageJ

Compound	fluorescence signal, times lower than with incubation of GnRHa-ICG (A2780 cells [1]; 20 μM each)	fluorescence signal, times lower than with incubation of GnRHa-ICG (OSE cells; 20 μM each)	tumor-to-intestine ratio [2, 5]	tumor-to-muscle ratio [2, 5]	course of tumor fluorescence intensity ([2]; mouse, in vivo)	fluorescence in control (normal, non-tumor) mice ([2]; mouse, in vivo, ip)	fluorescence intensity, fold higher than in H1299 cells (GnRHR-negative) (A2780 cells [1]; [6])	fluorescence intensity, fold higher than in H1299 cells (GnRHR-negative) (OSE cells; [6])	effect of competition with unlabeled GnRHa on fluorescence intensity [3]	cell viability after exposure (tumorigenic potential) (A2780 cells [4])	course of tumor-to-background ratio (TBR) over time ([2]; between 2 and 48 h, intraperitoneal)	ex vivo imaging of the brain (binding to hypothalamic GnRHR) ([2]; mouse, in vivo)	fluorescence in benign retroperitoneal lymph nodes versus tumor ([2]; mouse, in vivo)	time at which fluorescence signal of A2780 xenografts peaked in intensity ([2]; mouse, in vivo, ip)	time for which tumor fluorescence intensities were maintained ([2]; mouse, in vivo, ip)	time of highest fluorescence density in the liver ([2]; mouse, in vivo, ip)	ALT, AST, CREA, WBC and RBC, control versus test groups (Balb/c nude mice; 2 and 96 h)	BUN (Balb/c nude mice; 96 h after injection)	histological observation of main organs (heart, lung, liver, spleen, kidney; HE staining) (Balb/c nude mice)
CC1(C)C(/C=C/C=C/C=C/C=C2\N(CCCCS(=O)(=O)O)c3ccc4ccccc4c3C2(C)C)=[N+](CCCCS(=O)(=O)[O-])c2ccc3ccccc3c21 [ICG, Indocyanine green, reference compound]	2.61 times	2.25 times	0.57 ± 0.06	4.60 ± 0.50	decreased quickly within 48 h	high fluorescence signals	–	–	–	–	–	–	–	–	–	–	–	–	–
D-2-Nal-D-4-Cl-Phe-D-3-Pal-Ser-Tyr-D-Cit-Leu-Arg-Pro-D-Ala-NH2 [GnRHa-ICG]	–	–	–	–	–	did not show fluorescence signals	1.56 fold	1.34 fold	partial reduction in fluorescence intensity	does not increase cell viability	stable	did not show fluorescence signals	fewer fluorescence signals	2 h	up to 48 h	24 h	no significant difference	slight decrease	did not present any obvious damage
